One compound from patent US20230036051A1, “C[…] STABILITY” (priority 2021, published 2023) can be followed below.

The structures appear in SMILES notation.

This data set in a line: Storage stability of THC in ground cannabis flower, non-accelerated storage conditions. It counts as physicochemical. The settings on record: loss of THC content; positive control, amount not given. Here is the method: After analyzing initial cannabinoid content, an amount of terpene blend 1 was added to 3.5 (±0.05) g of ground flower (1, 2, or 3%, by weight of the dried cannabis) was applied to the product and stored in an air-tight container protected from light. All experiments were performed in triplicate. The testing conditions included: (1) Non-Accelerated Storage Conditions without exogenous terpenes “Control”; (2) Accelerated Conditions (+3.0% by weight hydrogen peroxide, initially, and refreshed each week) without exogenous terpenes, and (3) Accelerated Conditions with exogenous terpenes “H2O2+Terpene” (Blend 1). (FIG. 2). Butylated hydroxytoluene (BHT), a preservative used in food, known to prevent radical-mediated oxidation was employed as a positive control. Each container was opened twice/week and stirred, simulating usual conditions for access of medicinal cannabis. The cannabinoid content was analyzed after 24 and 81 days of storage.
The stabilizing effect was observed after 81 days (TABLE 2) and also between days 24 and 81 (TABLE 3).

Consider `Cc1cc(C(C)(C)C)c(O)c(C(C)(C)C)c1` [BHT, Butylated hydroxytoluene], for which the “Relative % Loss 0 to 81 Days” value is recorded as 7.90% and the “Relative % Loss 24 to 81 Days” value is given as 18.65%.
